Assay results taken from patent US12599580B2, “Composition comprising a lipid compound, a triglyceride, and a surfactant, and methods of using the same” (BASF AS, priority 2013, dated 2026).
Where a name gives a salt, the structure may show the parent alone. Read-outs that look alike come from different tables or passages of the source.

Experiments:
[1] = Phase 1 study, food effect (fed and fasted state), single oral dose; format: in vivo, healthy subjects (humans); conditions: human, plasma; for AUC(0-t): composition No. 27 in capsules, healthy male subjects, read-out: AUC0-24 h
Description: Phase 1 study of 2-((5Z,8Z,11Z,14Z,17Z)-icosa-5,8,11,14,17-pentaenyloxy)butanoic acid (API) assessing the safety, tolerability, PK, and pharmacodynamics (PD) have been performed in healthy individuals. Each group consisted of 6 healthy subjects. The formulation according to the present disclosure included Tween 20 (40 wt %), Miglyol 812N (30 wt %) and API (30 wt %). The API was mixed with other components of the composition as described under “General procedures.” The formulation of this example corresponds to composition No. 27 of Example 1. The premix was filled into capsules and administered orally to humans.

[2] = Phase 1 study, escalating single oral doses 5 to 600 mg; format: in vivo, healthy subjects (humans); conditions: single oral doses between 5 to 600 mg, healthy subjects
Protocol: Phase 1 study of 2-((5Z,8Z,11Z,14Z,17Z)-icosa-5,8,11,14,17-pentaenyloxy)butanoic acid (API) assessing the safety, tolerability, PK, and pharmacodynamics (PD) has been performed in healthy individuals. Each dose group consisted of 6 healthy subjects. The initial dose of API received was 5 mg, and the maximum dose of API was 600 mg. The API was mixed with other components of the formulations according to Table 20, the premix was filled into capsules and administered orally to humans.
A minimum of 10 days intervene before each dose escalation. Escalating doses are administered to the groups sequentially.

[3] = Phase 1 study, individual variability in pharmacokinetics at 600 mg; format: in vivo, healthy subjects (humans); conditions: single oral dose 600 mg, composition No. 27, healthy male subjects
Protocol: Phase 1 study of 2-((5Z,8Z,11Z,14Z,17Z)-icosa-5,8,11,14,17-pentaenyloxy)butanoic acid (API) assessing the safety, tolerability, PK, and pharmacodynamics (PD) has been performed in healthy individuals. Each dose group consisted of 6 healthy subjects. The initial dose API received was 5 mg, and the maximum dose was 600 mg. Data presented here are with an API dose of 600 mg. This formulation included Tween 20 (40 wt %), Miglyol 812N (30 wt %) and API (30 wt %). The API was mixed with other components of the composition as described under “General procedures.” The formulation for this example corresponds to composition No. 27 of Example 1. A minimum of 10 days intervene before each dose escalation. Escalating doses were administered to the groups sequentially.

[4] = Phase 1 study, pharmacokinetics in male and female, 300 mg b.i.d for 14 days; format: in vivo, healthy subjects (humans); conditions: for AUC / Cmax: human, plasma, oral, composition No. 27; for AUC: read-out: Geometric mean AUC0-τ; for Cmax: read-out: Geometric mean Cmax
Protocol: Phase 1 study of 2-((5Z,8Z,11Z,14Z,17Z)-icosa-5,8,11,14,17-pentaenyloxy)butanoic acid (API) assessing the safety, tolerability, PK, and pharmacodynamics (PD) has been performed in healthy individuals. Each dose group consisted of 6 healthy subjects. An API dose of 300 mg b.i.d was given orally to males and females for 14 consecutive days. The formulation given included Tween 20 (40 wt %), Miglyol 812N (30 wt %) and API (30 wt %). The API was mixed with other components in the formulation as described under “General procedures.” The formulation of this example corresponds to composition No. 27 of Example 1.

[5] = Solubility of the API in water; format: physicochemical
Description: (§1) Thus, low bioavailability is expected.

[6] = Permeability of the API; format: in vitro ADME
Description: as §1

[7] = tested on: APOE*3Leiden.CETP transgenic mouse model; conditions: cited from earlier work
[8] = Solubility of salts in surfactants and co-solvents; format: physicochemical
Description: Salts prepared from monovalent counter ions are all highly soluble in surfactants according to the present disclosure and excellent pre-concentrates and SMEDDS can be prepared.

[9] = male, po, 100 mg, Fasted, single oral dose 100 mg API
[10] = male, po, 100 mg, Fed, single oral dose 100 mg API

Compound `CC/C=C\C/C=C\C/C=C\C/C=C\C/C=C\CCCCOC(CC)C(=O)O` (stereo not shown) [API, 2-((5Z,8Z,11Z,14Z,17Z)-icosa-5,8,11,14,17-pentaenyloxy)butanoic acid] has a Tmax ([1]; both sexes, oral, healthy male and female subjects receiving single doses, read-out: mean Tmax) of 1 to 2 h, a Cmax [1, 9] of 2800 ng/mL and a half-life [1, 9] of 6.36 ± 3.13 h. It also gave an AUC(0-t) [1, 9] of 14000 ng·h/mL, a Tmax ([1]; male, po, 100 mg, Fasted, single oral dose 100 mg API, read-out: Tmax) of 1.4 h and a Cmax [1, 10] of 2700 ng/mL. It also gave a half-life [1, 10] of 6.29 ± 2.13 h, an AUC(0-t) [1, 10] of 15000 ng·h/mL and a Tmax ([1]; male, po, 100 mg, Fed, single oral dose 100 mg API, read-out: Tmax) of 3.6 h. The “increase of exposure (Cmax and AUC0-24) with dose” value [2] was “higher than dose-proportional manner”, the “% CV (relative variability) of AUC0-24” value [3] was ~15% and the “% CV (relative variability) of Cmax” value [3] was “approximately 10%”. The “gender differences in pharmacokinetics (Cmax, AUC0-24)” value ([4]; 300 mg b.i.d, males and females, 14 consecutive days) was “no gender differences in pharmacokinetics”, the “AUC Ratio E/M” value ([4]; Day 14, 300 mg b.i.d) was 0.937 and the “Cmax Ratio E/M” value ([4]; Day 14, 300 mg b.i.d) was 1.12. The AUC ([4]; Female, Day 14, 300 mg b.i.d) was 75800 ng·h/mL, the Cmax ([4]; Female, Day 14, 300 mg b.i.d) was 15800 ng/mL and the AUC ([4]; Male, Day 14, 300 mg b.i.d) was 80900 ng·h/mL. The Cmax ([4]; Male, Day 14, 300 mg b.i.d) was 14100 ng/mL, the solubility in water [5] was “low solubility in water” and the permeability [6] was “low permeability”. For the same compound, the “HDL cholesterol as compared to a control” value [7] was “increased”, the “atherosclerotic lesion areas in the aorta as compared to a control” value [7] was “decreased” and the “total cholesterol as compared to a control” value [7] was “decreased”.

For `CC/C=C\C/C=C\C/C=C\C/C=C\C/C=C\CCCCOC(CC)C(=O)O` (stereo not shown) [magnesium salt, magnesium 2-((5Z,8Z,11Z,14Z,17Z)-icosa-5,8,11,14,17-pentaenyloxy)butanoate], the “solubility in surfactants and co-solvents” value [8] was “medium solubility”.
